In US6949542B2, “Dihydro-benzo[b][1,4]diazepin-2-one derivatives” (Hoffman-La Roche Inc., priority 2002, dated 2005):

Compound | melting point
CCCN(C)c1cc2c(cc1C(F)(F)F)NC(=O)CC(c1cccc(-c3ccncc3)c1)=N2 [Example 81, 7-(Methyl-propyl-amino)-4-(3-pyridin-4-yl-phenyl)-8-trifluoromethyl-1,3-dihydro-benzo[b][1,4]diazepin-2-one] | 192 °C
COc1ccc2c(c1)N=C(c1cccc(-c3cccnc3)c1)CC(=O)N2 [Example 55, 7-Methoxy-4-(3-pyridin-3-yl-phenyl)-1,3-dihydro-benzo[b][1,4]diazepin-2-one] | 219 °C (dec.)
Cc1ccc(-c2cccc(C3=Nc4ccc(F)cc4NC(=O)C3)c2)cn1 [Example 11, 8-Fluoro-4-[3-(6-methyl-pyridin-3-yl)-phenyl]-1,3-dihydro-benzo[b][1,4]diazepin-2-one] | 225 to 226 °C
CCc1cc(-c2cccc(C3=Nc4cc(Cl)c(Cl)cc4NC(=O)C3)c2)ccn1 [Example 157, 7,8-Dichloro-4-[3-(2-ethyl-pyridin-4-yl)-phenyl]-1,3-dihydro-benzo[b][1,4]diazepin-2-one] | 216 °C
Cc1cc(-c2cccc(C3=Nc4cc(Cl)c(C(F)(F)F)cc4NC(=O)C3)c2)c(C)cn1 [Example 136, 7-Chloro-4-[3-(2,5-dimethyl-pyridin-4-yl)-phenyl]-8-trifluoromethyl-1,3-dihydro benzo[b][1,4]diazepin-2-one] | 214 °C
CCOc1cc2c(cc1C(F)(F)F)NC(=O)CC(c1cccc(-c3cc(C)ncc3C)c1)=N2 [Example 139, 4-[3-(2,5-Dimethyl-pyridin-4-yl)-phenyl]-7-ethoxy-8-trifluoromethyl-1,3-dihydro-benzo[b][1,4]diazepin-2-one] | 189 °C
CCc1cc(-c2cccc(C3=Nc4cc(OCC(F)(F)F)c(C(F)(F)F)cc4NC(=O)C3)c2)ccn1 [Example 158, 4-[3-(2-Ethyl-pyridin-4-yl)-phenyl]-7-(2,2,2-trifluoro-ethoxy)-8-trifluoromethyl-1,3-dihydro-benzo[b][1,4]diazepin-2-one] | 232 °C
Cc1cc2c(cc1Cl)NC(=O)CC(c1cccc(-c3cnccn3)c1)=N2 [Example 86, 8-Chloro-7-methyl-4-(3-pyrazin-2-yl-phenyl)-1,3-dihydro-benzo[b][1,4]diazepin-2-one] | 232 °C
CC(C)c1ccc(-c2cccc(C3=Nc4cc(OCC(F)(F)F)c(C(F)(F)F)cc4NC(=O)C3)c2)cn1 [Example 178, 4-[3-(6-Isopropyl-pyridin-3-yl)-phenyl]-7-(2,2,2-trifluoro-ethoxy)-8-trifluoromethyl-1,3-dihydro-benzo[b][1,4]diazepin-2-one] | 197 °C
CCc1cc(-c2cccc(C3=Nc4cc(C)c(Cl)cc4NC(=O)C3)c2)ccn1 [Example 153, 8-Chloro-4-[3-(2-ethyl-pyridin-4-yl)-phenyl]-7-methyl-1,3-dihydro-benzo[b][1,4]diazepin-2-one] | 195 °C
Cc1cc(-c2cccc(C3=Nc4cc(F)c(F)cc4NC(=O)C3)c2)cc(C)n1 [Example 126, 7,8-Difluoro-4-[3-(2,6-dimethyl-pyridin-4-yl)-phenyl]-1,3-dihydro-benzo[b][1,4]diazepin-2-one] | 252 °C
O=C1CC(c2cccc(-c3cnccn3)c2)=Nc2cc(C(F)(F)F)c(Cl)cc2N1 [Example 110, 8-Chloro-4-(3-pyrazin-2-yl-phenyl)-7-trifluoromethyl-1,3-dihydro-benzo[b][1,4]diazepin-2-one] | 214 °C
O=C1CC(c2cccc(-c3cccnc3)c2)=Nc2cc(C(F)(F)F)c(Cl)cc2N1 [Example 113, 8-Chloro-4-(3-pyridin-3-yl-phenyl)-7-trifluoromethyl-1,3-dihydro-benzo[b][1,4]diazepin-2-one] | 208 °C
Cc1cc2c(cc1C(F)(F)F)N=C(c1cccc(-c3cnccn3)c1)CC(=O)N2 [Example 93, 8-Methyl-4-(3-pyrazin-2-yl-phenyl)-7-trifluoromethyl-1,3-dihydro-benzo[b][1,4]diazepin-2-one] | 216 °C

Next, values leading:

melting point | Compound
163 °C | Cc1cc(-c2cccc(C3=Nc4cc(Cl)c(C(F)(F)F)cc4NC(=O)C3)c2)cc(CO)n1 [Example 403, 7-Chloro-4-[3-(2-hydroxymethyl-6-methyl-pyridin-4-yl)-phenyl]-8-trifluoromethyl-1,3-dihydro-benzo[b][1,4]diazepin-2-one]
188 °C | Cc1cc2c(cc1C(F)(F)F)NC(=O)CC(c1cccc(-c3ccnc(CN(C)CC(C)C)c3)c1)=N2 [Example 360, 4-(3-{2-[(Isobutyl-methyl-amino)-methyl]-pyridin-4-yl}-phenyl)-7-methyl-8-trifluoromethyl-1,3-dihydro-benzo[b][1,4]diazepin-2-one]
233 °C | CCCN(C)c1cc2c(cc1C(F)(F)F)NC(=O)CC(c1cccc(-c3cc(C)nc(C)c3)c1)=N2 [Example 413, 4-[3-(2,6-Dimethyl-pyridin-4-yl)-phenyl]-7-(methyl-propyl-amino)-8-trifluoromethyl-1,3-dihydro-benzo[b][1,4]diazepin-2-one]
168 °C | CC(C)c1cc(-c2cccc(C3=Nc4ccc(C(F)(F)F)cc4NC(=O)C3)c2)ccn1 [Example 272, 4-[3-(2-Isopropyl-pyridin-4-yl)-phenyl]-8-trifluoromethyl-1,3-dihydro benzo[b][1,4]diazepin-2-one]
210 to 217 °C | CCc1cc2c(cc1C(F)(F)F)NC(=O)CC(c1cccc(-c3ccnc(C#N)c3)c1)=N2 [Example 210, 4-[3-(8-Ethyl-4-oxo-7-trifluoromethyl-4,5-dihydro-3H-benzo[b][1,4]diazepin-2-yl)-phenyl]-pyridine-2-carbonitrile]
191 °C | CCc1ccc(-c2cccc(C3=Nc4cc(OCC(F)(F)F)c(C(F)(F)F)cc4NC(=O)C3)c2)cn1 [Example 193, 4-[3-(6-Ethyl-pyridin-3-yl)-phenyl]-7-(2,2,2-trifluoro-ethoxy)-8-trifluoromethyl-1,3-dihydro-benzo[b][1,4]diazepin-2-one]
207 °C | Cc1cc(-c2cccc(C3=Nc4cc(N(C)C(C)C)c(C(F)(F)F)cc4NC(=O)C3)c2)ccn1 [Example 363, 7-(Isopropyl-methyl-amino)-4-[3-(2-methyl-pyridin-4-yl)-phenyl]-8-trifluoromethyl-1,3-dihydro-benzo[b][1,4]diazepin-2-one]
209 to 212 °C | Cc1nccc(-c2cccc(C3=Nc4ccc(-n5cccc5)cc4NC(=O)C3)c2)n1 [Example 307, 4-[3-(2-Methyl-pyrimidin-4-yl)-phenyl]-8-pyrrol-1-yl-1,3-dihydro-benzo[b][1,4]diazepin-2-one]
216 °C | CCOc1cc2c(cc1C(F)(F)F)NC(=O)CC(c1cccc(-c3ccnc(CO)c3)c1)=N2 [Example 287, 4-[3-(2-Hydroxymethyl-pyridin-4-yl)-phenyl]-7-ethoxy-8-trifluoromethyl-1,3-dihydro-benzo[b][1,4]diazepin-2-one]
190 °C | O=C1CC(c2cccc(-c3ccnc(CN4CCC4)c3)c2)=Nc2cc(OCC(F)(F)F)c(C(F)(F)F)cc2N1 [Example 381, 4-[3-(2-Azetidin-1-ylmethyl-pyridin-4-yl)-phenyl]-7-(2,2,2-trifluoro-ethoxy)-8-trifluoromethyl-1,3-dihydro-benzo[b][1,4]diazepin-2-one]
228 °C | Cc1cc(-c2cccc(C3=Nc4ccc(C(F)(F)F)cc4NC(=O)C3)c2)cc(CO)n1 [Example 407, 4-[3-(2-Hydroxymethyl-6-methyl-pyridin-4-yl)-phenyl]-8-trifluoromethyl-1,3-dihydro-benzo[b][1,4]diazepin-2-one]
247 °C | Cc1cc2c(cc1Cl)NC(=O)CC(c1cccc(-c3ccnc(C(F)(F)F)c3)c1)=N2 [Example 264, 8-Chloro-7-methyl-4-[3-(2-trifluoromethyl-pyridin-4-yl)-phenyl]-1,3-dihydro-benzo[b][1,4]diazepin-2-one]
241 to 242 °C | Cc1nccc(-c2cccc(C3=Nc4cc(Cl)c(Cl)cc4NC(=O)C3)c2)n1 [Example 306, 7,8-Dichloro-4-[3-(2-methyl-pyrimidin-4-yl)-phenyl]-1,3-dihydro-benzo[b][1,4]diazepin-2-one]
200 °C | CCc1cc(C)c(-c2cccc(C3=Nc4cc(C)c(C(F)(F)F)cc4NC(=O)C3)c2)cn1 [Example 254, 4-[3-(6-Ethyl-4-methyl-pyridin-3-yl)-phenyl]-7-methyl-8-trifluoromethyl-1,3-dihydro-benzo[b][1,4]diazepin-2-one]
199 °C | O=C1CC(c2cccc(-c3ccnc(CO)c3)c2)=Nc2cc(Cl)c(C(F)(F)F)cc2N1 [Example 284, 7-Chloro-4-[3-(2-hydroxymethyl-pyridin-4-yl)-phenyl]-8-trifluoromethyl-1,3-dihydro benzo[b][1,4]diazepin-2-one]
218 °C | O=C1CC(c2cccc(-c3ccnc(C4CC4)c3)c2)=Nc2cc(OCC(F)(F)F)c(C(F)(F)F)cc2N1 [Example 349, 4-[3-(2-Cyclopropyl-pyridin-4-yl)-phenyl]-7-(2,2,2-trifluoro-ethoxy)-8-trifluoromethyl-1,3-dihydro-benzo[b][1,4]diazepin-2-one]
220 to 233 °C | O=C1CC(c2cccc(-c3ccncn3)c2)=Nc2ccc(Cl)cc2N1 [Example 299, 8-Chloro-4-(3-pyrimidin-4-yl-phenyl)-1,3-dihydro-benzo[b][1,4]diazepin-2-one]
198 °C | Cc1cc2c(cc1Cl)NC(=O)CC(c1cccc(-c3ccnc(CC(C)C)c3)c1)=N2 [Example 277, 8-Chloro-4-[3-(2-isobutyl-pyridin-4-yl)-phenyl]-7-methyl-1,3-dihydro-benzo[b][1,4]diazepin-2-one]
233 to 236 °C | Cc1nnc(-c2cccc(C3=Nc4cc(N(C)C)c(C(F)(F)F)cc4NC(=O)C3)c2)nc1C [Example 343, 7-Dimethylamino-4-[3-(5,6-dimethyl-[1,2,4]triazin-3-yl)-phenyl]-8-trifluoromethyl-1,3-dihydro-benzo[b][1,4]diazepin-2-one]
211 °C | CCc1ccc(-c2cccc(C3=Nc4ccc(C(F)(F)F)cc4NC(=O)C3)c2)cn1 [Example 191, 4-[3-(6-Ethyl-pyridin-3-yl)-phenyl]-8-trifluoromethyl-1,3-dihydro-benzo[b][1,4]diazepin-2-one]
